In PubChem BioAssay (NCI):
“And” between values parts separate entries of the source, which are not always exact repeats. Equal values may be shown once.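 Method: 48-hour compound exposure of cells in 96-well plates, five concentrations, linear interpolation of endpoints. Abbreviation: GI50, concentration required for 50% inhibition of growth. TGI marks complete inhibition of growth.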

Tests used:
Experiment in all cases: growth of human tumour cells (NCI), 48 h
[1] = system: KM20L2 colon
[2] = system: HOP-18 NSCLC
[3] = system: NCI-H226 lung
[4] = system: DLD-1 colon
[5] = system: DMS 273 small cell lung
[6] = system: SNB-78 CNS
[7] = system: OVCAR-3 ovarian
[8] = system: SN12C renal
[9] = system: DMS 114 small cell lung
[10] = system: M19-MEL melanoma
[11] = system: MDA-N
[12] = system: BT-549 breast
[13] = system: DU-145 prostate
[14] = system: 786-0 renal

Structure (SMILES)	TGI [1]	TGI [2]	TGI [3]	TGI [4]	TGI [5]	TGI [6]	TGI [7]	TGI [8]	TGI [9]	TGI [10]	TGI [11]	TGI [12]	TGI [13]	TGI [14]	GI50 [3]	GI50 [12]	GI50 [13]	GI50 [7]	GI50 [8]
COC(=O)[C@]1(c2ccc(N(C)C)cc2OC)C[C@@H]2CCCN(CCc3c1[nH]c1ccccc31)C2	32.5 µM	> 58.7 µM	37.6 µM	> 64.1 µM	45.1 µM	> 91.1 µM	36.4 µM	41 µM	30.9 µM	32.8 µM	–	–	–	–	–	–	–	–	–
CCCOP(=O)(OCCC)OC(C(F)(F)F)C(F)(F)F	–	–	> 100 µM	–	–	–	> 100 µM	> 100 µM	–	–	> 100 µM	> 100 µM	> 100 µM	–	–	–	–	–	–
COC(=O)CNC(=O)CCC(C)[C@H]1CCC2C3C(C[C@H](OC(C)=O)[C@@]21C)[C@@]1(C)CCC2(C[C@H]1C[C@H]3OC(C)=O)OOC1(CC[C@]3(C)C4C[C@H](OC(C)=O)[C@@]5(C)C(CC[C@@H]5C(C)CCC(=O)NCC(=O)OC)C4[C@H](OC(C)=O)C[C@@H]3C1)OO2 (stereo partly specified)	–	–	3.46 µM	–	–	–	15.9 µM	–	–	–	> 50 µM	> 50 µM	–	1.42 µM	–	–	–	–	–
COc1cc2cc(C(=O)N3CC(CCl)c4ccc(N(C)C)cc43)[nH]c2c(OC)c1OC (stereo unspecified)	–	–	0.428 µM	–	–	–	0.363 µM	0.531 µM	–	–	0.431 µM	1.33 µM	0.359 µM	–	–	–	–	–	–
CN1Cc2cc(O)c(O)cc2C(O)C1 (stereo unspecified)	–	–	> 100 µM	–	–	–	> 100 µM	> 100 µM	–	–	> 100 µM	> 100 µM	> 100 µM	–	–	–	–	–	–
CCOc1ccc(C(C)c2cc3c(cc2OC)OCO3)cc1 (stereo unspecified)	0.414 µM	> 100 µM	0.752 µM	82.5 µM	11.7 µM	> 100 µM	27.7 µM	40.7 µM	0.85 µM	–	–	–	–	–	–	–	–	–	–
CC(C)C(=O)/C=C/S/C=C/C(=O)C(C)C	–	–	29.2 µM	–	–	–	14.9 µM	29.6 µM	–	–	–	–	29.4 µM	6.52 µM	–	–	–	–	–
CC(C(=O)c1ccncc1)c1ccccn1 (stereo unspecified)	–	–	> 100 µM	–	–	–	> 100 µM	> 100 µM	–	–	> 100 µM	> 100 µM	> 100 µM	> 100 µM	–	–	–	–	–
S=c1nc(N/N=C/c2cccs2)c2cn[nH]c2[nH]1	–	–	> 100 µM	–	–	–	34.1 µM	> 100 µM	–	–	–	> 100 µM	> 100 µM	> 100 µM	–	–	–	–	–
O=P(Nc1ccccc1)(Oc1ccccc1)N(CCCl)CCCl (stereo unspecified)	> 100 µM	> 100 µM	> 100 µM	> 100 µM	> 100 µM	> 100 µM	> 100 µM	> 100 µM	> 100 µM	> 100 µM	–	–	–	–	–	–	–	–	–
Cc1ccc(N=Nc2c(O)ccc3cc(S(=O)(=O)O)ccc23)cc1	–	–	> 100 µM	–	–	–	> 100 µM	> 100 µM	–	–	> 100 µM	> 100 µM	> 100 µM	> 100 µM and 25.2 µM	–	–	–	–	–
Cc1cc(OCCOCCC(F)(F)P(=O)(O)O)ccc1CCc1cnc2c(N)nc3cc(CCC(=O)O)ccc3c2c1	–	–	> 100 µM	–	–	–	> 100 µM	> 100 µM	–	–	–	> 100 µM	> 100 µM	–	> 100 µM	> 100 µM	> 100 µM	> 100 µM	> 100 µM
CCCCCCCCCCCCCC[n+]1ccc(C(N)=O)cc1	–	–	4.01 µM	–	–	–	5.39 µM	10.6 µM	–	–	–	–	10.7 µM	–	1.52 µM	–	2.66 µM	1.54 µM	3.2 µM
COc1cc2c(cc1Oc1c(Oc3c(O)c(OC)cc4c3C(CC(C)C)N(C)CC4)c(OC)cc3c1C(CC(C)C)N(C)CC3)C(CC(C)C)N(C)CC2 (stereo unspecified)	7.12 µM	17.1 µM	2.5 µM	14.2 µM	4.21 µM	4.71 µM	11.4 µM	3.53 µM	6.52 µM	2.58 µM	–	–	–	–	–	–	–	–	–
C=CC(C)C1(CCCOCc2ccccc2)C(=S)N2CCC3(CC24CCCC14)OCCO3 (stereo unspecified)	> 100 µM	> 100 µM	> 100 µM	> 100 µM	> 100 µM	> 100 µM	> 100 µM	> 100 µM	> 100 µM	> 100 µM	–	–	–	–	–	–	–	–	–
CNC(=O)SCC(NC(=O)CCC(N)C(=O)O)C(=O)NCC(=O)O (stereo unspecified)	> 100 µM	> 100 µM	> 100 µM	> 100 µM	> 100 µM	> 100 µM	> 100 µM	> 100 µM	> 100 µM	> 100 µM	–	–	–	–	–	–	–	–	–
O=C(O)/C(=C\c1ccc(O)cc1)c1cccc2ccccc12	–	–	> 100 µM	–	–	–	> 100 µM	> 100 µM	–	–	> 100 µM	> 100 µM	> 100 µM	> 100 µM	–	–	–	–	–
COC1=CC(=O)C=C(OC)C1=O	66.8 µM	79.7 µM	30.8 µM	27.9 µM	76.8 µM	56.8 µM	32.2 µM	35.1 µM	13.5 µM	8.19 µM	–	–	–	–	–	–	–	–	–
COC1=C(C)C(=O)C2=C(C1=O)C1C3CC4=C(C(=O)C(OC)=C(C)C4=O)C(CNC(=O)C(C)O)N3C(C#N)C(C2)N1C (stereo unspecified)	3.1 µM	< 0.01 µM	0.109 µM	0.372 µM	< 0.0111 µM	0.0863 µM	< 0.01 µM	1.72 µM	< 0.01 µM	< 0.01 µM	< 0.0107 µM	< 0.01 µM	0.0566 µM	1.24 µM	–	–	–	–	–
